Laboratory results reported in patent publication US7935722B2 (Eli Lilly and Company, priority 2005, dated 2011).
Like-named read-outs stand apart in the source and are kept apart here.

How the values were obtained:
[1] = target: T1, human AR (androgen receptor) (Homo sapiens, UniProt P10275); assay: Steroid hormone nuclear receptor binding assay, AR binding
T1 construct: expressed in transfected cells; host or cells: 293 cells (293-AR lysate)
T1 sequence (P10275 1-920): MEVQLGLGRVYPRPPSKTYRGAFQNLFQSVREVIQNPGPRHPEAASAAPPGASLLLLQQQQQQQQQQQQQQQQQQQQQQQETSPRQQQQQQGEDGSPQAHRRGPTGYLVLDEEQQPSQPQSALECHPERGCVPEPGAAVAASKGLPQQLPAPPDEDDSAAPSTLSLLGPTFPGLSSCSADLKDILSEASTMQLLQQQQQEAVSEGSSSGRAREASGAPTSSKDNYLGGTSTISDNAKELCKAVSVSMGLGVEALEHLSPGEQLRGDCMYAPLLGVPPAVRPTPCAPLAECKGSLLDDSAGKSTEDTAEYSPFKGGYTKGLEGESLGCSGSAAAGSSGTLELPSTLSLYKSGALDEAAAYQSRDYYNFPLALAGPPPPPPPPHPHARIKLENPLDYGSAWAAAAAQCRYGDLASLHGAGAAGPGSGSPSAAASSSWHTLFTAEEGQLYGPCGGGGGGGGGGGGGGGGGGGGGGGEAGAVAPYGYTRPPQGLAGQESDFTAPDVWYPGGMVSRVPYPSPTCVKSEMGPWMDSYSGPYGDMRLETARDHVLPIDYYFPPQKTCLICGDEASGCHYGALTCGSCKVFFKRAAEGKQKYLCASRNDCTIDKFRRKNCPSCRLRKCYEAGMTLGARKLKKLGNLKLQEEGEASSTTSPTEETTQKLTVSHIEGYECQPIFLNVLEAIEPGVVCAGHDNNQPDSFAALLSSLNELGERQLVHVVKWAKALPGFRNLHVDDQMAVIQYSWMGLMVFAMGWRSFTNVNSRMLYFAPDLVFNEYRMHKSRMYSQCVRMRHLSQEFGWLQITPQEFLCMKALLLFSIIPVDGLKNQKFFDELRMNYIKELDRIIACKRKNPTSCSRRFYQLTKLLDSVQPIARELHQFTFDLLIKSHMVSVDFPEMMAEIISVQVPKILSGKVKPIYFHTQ
Procedure: Cell lysates from 293 cells overexpressing human GR (glucocorticoid receptor), AR (androgen receptor), MR (mineralocorticoid receptor) or PR (progesterone receptor) are used for competition binding assays to determine Ki values for test compounds. […] Competing compounds are added at various concentrations ranging from about 0.01 nM to 10 μM. Non-specific binding is determined in the presence of 500 nM dexamethasone for GR binding, 500 nM aldosterone for MR binding, or 500 nM methyltrienolone for AR and PR binding. The binding reaction (140 μl) is incubated for overnight at 4° C., then 70 μl of cold charcoal-dextran buffer (containing per 50 ml of assay buffer, 0.75 g of charcoal and 0.25 g of dextran) is added to each reaction. Plates are mixed 8 minutes on an orbital shaker at 4° C. Plates are then centrifuged at 3,000 rpm at 4° C. for 10 minutes. An aliquot of 120 μl of the mix is transferred to another 96-well plate and 175 μl of Wallac Optiphase “Hisafe 3” scintillation fluid is added to each well. Plates are sealed and shaken vigorously on an orbital shaker. After an incubation of 2 hrs, plates are read in a Wallac Microbeta counter. […] The Kd for ^3H-dexamethasone for GR binding, ^3H-methyltrienolone for AR binding, ^3H-aldosterone for MR binding, or ^3H-methyltrienolone for PR binding, is determined by saturation binding. The IC50 values for test compounds are converted to Ki using Cheng-Prusoff equation and the Kd determined by saturation binding assay. […]

[2] = target: T2, human androgen receptor (AR) (Homo sapiens, UniProt P10275); assay: C2C12 AR/ARE reporter assay; format: cell-based
T2 construct: expressed in transfected cells; host or cells: mouse myoblast C2C12 cells, transiently co-transfected
T2 sequence (P10275 1-920): T1 sequence (P10275 1-920)
Procedure: As an indicator of agonist activity in muscle tissue, the C2C12 AR/ARE reporter assay is performed. Briefly, mouse myoblast C2C12 cells are co-transfected using FuGENE™. […] Cells are transfected in T150 cm^2 flasks in DMEM media with 4% or 10% Fetal Bovine Serum […]. After a 5 hour incubation, transfected cells are trypsinized, plated in 96 well dishes in DMEM media containing 10% charcoal-stripped FBS, incubated for 2 h and then exposed to various concentrations of test compounds ranging from about 0.01 nM to 10 μM. After 48 h of incubations with compounds, cells are lysed and luciferase activity is determined using standard techniques. Data is fit to a 4 parameter-fit logistics to determine EC50 values. The % efficacy is determined versus maximum stimulation obtained with 10 nM methyltrienolone. […]

[3] = C2C12, read-out: C2C12 % Efficacy
[4] = average of n trials, read-out: AR binding Ki
[5] = C2C12 AR/ARE reporter assay, average of n trials, read-out: C2C12 % Efficacy
[6] = C2C12 AR/ARE reporter assay, average of n trials, read-out: C2C12 EC50

Compound | Ki [1] | EC50 [2] | Emax [2, 3] | Ki [1, 4] | Emax [2, 5] | EC50 [2, 6] | C2C12 % Efficacy ([2]; C2C12 AR/ARE reporter assay, average of n trials)
COc1ccc2c(c1)c1c(n2Cc2ccccc2Cl)CCC(NC(=O)C(C)C)C1 (stereo not drawn) [Example 69, N-[9-(2-Chloro-benzyl)-6-methoxy-2,3,4,9-tetrahydro-1H-carbazol-3-yl]-isobutyramide] | 34.1 nM | 213 nM | 63.3% | – | – | – | –
CC(C)C(=O)NC1CCc2c(c3cc(Br)ccc3n2Cc2cccc(F)c2)C1 (stereo not drawn) [Example 35, N-[6-bromo-9-(3-fluoro-benzyl)-2,3,4,9-tetrahydro-1H-carbazol-3-yl]-isobutyramide] | 2.6 nM | 2.3 nM | 74.1% | – | – | – | –
CC(C)C(=O)NC1CCc2c(c3cc(C(F)F)ccc3n2Cc2cccc(F)c2)C1 (stereo not drawn) [Example 198, N-[6-Difluoromethyl-9-(3-fluoro-benzyl)-2,3,4,9-tetrahydro-1H-carbazol-3-yl]-isobutyramide] | – | – | – | 3.2 nM | 102% | 11 nM | –
CC(C)C(=O)NC1CCc2c(c3cc(C#N)ccc3n2Cc2ccccn2)C1 (stereo not drawn) [Example 146] | 12.7 nM | 15.5 nM | 86.8% | – | – | – | –
CC(C)C(=O)N[C@@H]1CCc2c(c3cc(C#N)ccc3n2Cc2cnccn2)C1 [Example 160, (R)-N-(6-Cyano-9-pyrazin-2-ylmethyl-2,3,4,9-tetrahydro-1H-carbazol-3-yl)-isobutyramide] | 19.8 nM | 6.3 nM | 89.5% | – | – | – | –
CC(C)C(=O)NC1CCc2c(c3cc(Cl)ccc3n2Cc2cccc(O)c2)C1 (stereo not drawn) [Example 102, N-[^6-Chloro-9-(3-hydroxy-benzyl)-2,3,4,9-tetrahydro-1H-carbazol-3-yl]-isobutyramide] | 16.8 nM | 300 nM | 39.6% | – | – | – | –
COc1ccc2c(c1)c1c(n2Cc2ccc(Cl)cc2)CCC(NC(=O)C(C)C)C1 (stereo not drawn) [Example 71] | 82.5 nM | 402 nM | 40.7% | – | – | – | –
CC(C)C(=O)NC1CCc2c(c3cc(Cl)ccc3n2Cc2ccccc2[N+](=O)[O-])C1 (stereo not drawn) [Example 104, N-[6-Chloro-9-(2-nitro-benzyl)-2,3,4,9-tetrahydro-1H-carbazol-3-yl]-isobutyramide] | – | – | – | 22.5 nM | 71.6% | 555 nM | –
Cc1csc(-c2ccc3c(c2)c2c(n3Cc3cccc(F)c3)CC[C@@H](NC(=O)C(C)C)C2)n1 [Example 128, (R)-N-[9-(3-Fluorobenzyl)-6-(4-methylthiazol-2-yl)-2,3,4,9-tetrahydro-1H-carbazol-3-yl]isobutyramide] | 43 nM | 236 nM | 72.5% | – | – | – | –
CC(C)C(=O)NC1CCc2c(c3cc(-c4cccnn4)ccc3n2Cc2cccc(F)c2)C1 (stereo not drawn) [Example 138] | – | – | – | 47.3 nM | 86.8% | 31.1 nM | –
Cc1nc(Cn2c3c(c4cc(C#N)ccc42)CC(NC(=O)C(C)C)CC3)cs1 (stereo not drawn) [Example 150, N-[6-Cyano-9-(2-methyl-thiazol-4-ylmethyl)-2,3,4,9-tetrahydro-1H-carbazol-3-yl]-isobutyramide] | 19.6 nM | 98.8 nM | 91.3% | – | – | – | –
CC(C)C(=O)N[C@@H]1CCc2c(c3cc(C=O)ccc3n2Cc2cccc(F)c2)C1 [Example 200, (R)-N-[9-(3-Fluorobenzyl)-6-formyl-2,3,4,9-tetrahydro-1H-carbazol-3-yl]-isobutyramide] | 2.8 nM | 8.1 nM | 112% | – | – | – | –
CN(C)C(=O)NC1CCc2c(c3cc(OC(F)(F)F)ccc3n2Cc2cccc(F)c2)C1 (stereo not drawn) [Example 169] | – | – | – | 8.3 nM | 76.8% | 6.5 nM | –
CC(C)C(=O)NC1CCc2c(c3cc(C#N)ccc3n2Cc2cscn2)C1 (stereo not drawn) [Example 147, N-(6-Cyano-9-thiazol-4-ylmethyl-2,3,4,9-tetrahydro-1H-carbazol-3-yl)-isobutyramide] | 29.2 nM | 79.7 nM | 102% | – | – | – | –
CC(C)C(=O)NC1CCc2c(c3cc(C=O)ccc3n2Cc2cccc(F)c2)C1 (stereo not drawn) [Example 197, N-[9-(3-Fluoro-benzyl)-6-formyl-2,3,4,9-tetrahydro-1H-carbazol-3-yl]-isobutyramide] | 4.2 nM | 26.8 nM | 147% | – | – | – | –
COc1cccc(Cn2c3c(c4cc(OC)ccc42)CC(NC(=O)C(C)C)CC3)c1 (stereo not drawn) [Example 73] | 52.1 nM | 227 nM | 54.7% | – | – | – | –
CC(C)C(=O)N[C@@H]1CCc2c(c3cc(-c4cccnc4)ccc3n2Cc2cccc(F)c2)C1 [Example 133] | 4.6 nM | 7.5 nM | 66.4% | – | – | – | –
CC(C)C(=O)NC1CCc2c(c3cc(C#N)ccc3n2Cc2csc(Cl)n2)C1 (stereo not drawn) [Example 153, N-[9-(2-Chloro-thiazol-4-ylmethyl)-6-cyano-2,3,4,9-tetrahydro-1H-carbazol-3-yl]-isobutyramide] | 7.8 nM | 19.3 nM | 93.3% | – | – | – | –
CC(C)C(=O)N[C@@H]1CCc2c(c3cc(C(=O)O)ccc3n2Cc2cccc(F)c2)C1 [Example 188] | – | – | – | 952 nM | 82.4% | 794 nM | –
CN(C)C(=O)NC1CCc2c(c3cc(Br)ccc3n2Cc2cccc(F)c2)C1 (stereo not drawn) [Example 176, 3-[6-Bromo-9-(3-fluoro-benzyl)-2,3,4,9-tetrahydro-1H-carbazol-3-yl]-1,1-dimethyl-urea] | 7.8 nM | 46 nM | 61.5% | – | – | – | –
CC(C)C(=O)NC1CCc2c(c3cc(-c4cncnc4)ccc3n2Cc2cccc(F)c2)C1 (stereo not drawn) [Example 137] | 16.2 nM | 17.5 nM | 79.4% | – | – | – | –
COc1ccc2c(c1)c1c(n2Cc2cccnc2)CCC(NC(=O)C(C)C)C1 (stereo not drawn) [Example 144] | 737 nM | 275 nM | 41.4% | – | – | – | –
COc1ccccc1Cn1c2c(c3cc(C#N)ccc31)CC(NC(=O)C(C)C)CC2 (stereo not drawn) [Example 105, N-[6-Cyano-9-(2-methoxy-benzyl)-2,3,4,9-tetrahydro-1H-carbazol-3-yl]-isobutyramide] | 7.7 nM | 30.7 nM | 97.5% | – | – | – | –
COc1ccc2c(c1)c1c(n2Cc2cccc(F)c2)CCC(NC(=O)C(C)C)C1 (stereo not drawn) [Example 79, N-[9-(3-fluoro-benzyl)-methoxy-2,3,4,9-tetrahydro-1H-carbazol-3-yl]-isobutyramide] | – | – | – | 28.2 nM | – | 16.4 nM | 85.7%
COc1ccc2c(c1)c1c(n2Cc2ccccc2)CCC(NC(=O)C2CC2)C1 (stereo not drawn) [Example 68, Cyclopropanecarboxylic acid (9-benzyl-6-methoxy-2,3,4,9-tetrahydro-1H-carbazol-3-yl)-amide] | 46.2 nM | 40.8 nM | 98% | – | – | – | –
CC(C)C(=O)NC1CCc2c(c3cc(C#N)ccc3n2Cc2ccccc2N)C1 (stereo not drawn) [Example 109, N-[9-(2-Amino-benzyl)-6-cyano-2,3,4,9-tetrahydro-1H-carbazol-3-yl]-isobutyramide] | 15.9 nM | 2.3 nM | 76.9% | – | – | – | –
